Experimental data from patent US10266482B2, “Long-term memory inducing agent” (NATIONAL UNIVERSITY CORPORATION TOKYO MEDICAL AND DENTAL …, priority 2017, dated 2019).

How the values were obtained:
young mice [1] = test: Object recognition test (ORT) with young mice; type: in vivo, ICR mice
Method: (§1) 8-week-old male ICR mice were purchased. Each of the experiment individuals was raised in an individual cage, and adapted to the raising environment for at least a week before use. The rearing room was kept at 22° C. at cycles of 12 hours of light period/12 hours of dark period, and feed and drinking water were given freely. All of the experiments were conducted during the latter 6 hours of the light period.
(§2) N(1)-acetyl-5-methoxykynuramine (AMK) was used as a drug. AMK was diluted with physiological saline. In the administration experiment, a dosage of 0.001 mg-1 mg/3.65 ml/kg bw was intraperitoneally administered.
For an object recognition test, two each of two types of objects (height 6 cm×diameter 4 cm, height 7 cm×diameter 7 cm) and an observation box (height 30 cm×width 40 cm×depth 30 cm) were used. This test consisted of an acquisition trial and a test trial, and the experimental individuals were allowed to explore in the observation box 5 minutes a day for 3 days immediately before the experiment in order to adapt the experimental individuals to the observation box. In the acquisition trial, two identical objects were presented to the observation box and the experimental individuals were allowed to search for a minute. When the acquisition trials were conducted for more than one time, the acquisition trials were conducted at one-hour intervals. The test trial was conducted 24 hours, or 4 or 7 days after the last acquisition trial. In the test trials, one of the two identical objects presented in the acquisition trials was exchanged with a different object (new object), and the experimental individuals were allowed to search for 5 minutes. During the test trials, the time that took each of the mice to search for the object was measured, and the ratio of the searching time of the two objects (DI value:discrimination index) was calculated according to the following formula to examine the relative cognitive levels to the new object. DI value (%)=Tn×100/(Tf+Tn)
The object recognition test was a method of evaluating the learning/memory function that utilizes mice's novelty-seeking behavior.
One-sample t-test was employed to compare the DI value with the expected value (50%). In each experiment, when comparison among individual groups was required, an unpaired t-test was employed for comparing two groups while multiple comparisons including one-way analysis of variance followed by Bonferroni test was conducted for comparing three or more groups.

young mice [2] = test: Object recognition test for young mice (melatonin and melatonin metabolites); type: in vivo, ICR mice; conditions: i.p. 60 minutes after one one-minute acquisition trial, test trial 24 hours later
Method: Two-month-old male ICR mice (young mice) were used. The rearing room was kept at 22° C. at cycles of 12 hours of light period/12 hours of dark period, and feed and drinking water were given freely. All of the experiments were conducted during the latter 6 hours of the light period.
Melatonin (MEL), N(1)-acetyl-N(2)-formyl-5-methoxykynuramine (AFMK), and N(1)-acetyl-5-methoxykynuramine (AMK) were used as drugs. Melatonin was purchased from SIGMA Aldrich, AFMK was purchased from Cayman Chemical, and AMK was purchased from Toronto Research Chemicals. AFMK and AMK were diluted with physiological saline and intraperitoneally administered at a dosage of 0.01 mg/kg bw, 0.1 mg/kg bw or 1.0 mg/kg bw. MEL was diluted with physiological saline containing 1 vol % ethanol, and intraperitoneally administered at a dosage of 1.0 mg/kg bw or 5.0 mg/kg bw. As controls, physiological saline or physiological saline containing 1 vol % ethanol was intraperitoneally administered.
Test was conducted in the same manner as “5.3 Object recognition test” in Example 5.
Processing was conducted in the same manner as “5.4 Statistical processing” in Example 5.

young crickets = test: Olfactory associative learning test in young crickets (single-time training, memory a day after); type: in vivo, Gryllus bimaculatus
[3] = Measurement of brain AMK level after intraperitoneal administration; type: in vivo, ICR mice; conditions: 1 mg/kg bw intraperitoneal
Method: as §1, §2
1 mg/kg bw of AMK was intraperitoneally administered, and 5, 15, 30, 60, 120 and 240 minutes later, the hippocampus and a region including the perirhinal cortex of the temporal lobe that was assumed to be involved in object recognition memory were collected to measure the AMK levels with a high-performance liquid chromatograph mass spectrometer. As a control group, AMK levels in untreated individuals were also measured

aged crickets = test: Olfactory associative learning test in aged crickets (age-related memory disorder, training four times); type: in vivo, Gryllus bimaculatus; conditions: 1 μM, 3 μl
Method: Male crickets about one week old (young) or three week old (aged) following molting into adult forms were used. Each of the crickets was placed into a 100 ml beaker three days before the experiment, and deprived of water for 2-3 days to enhance the desire of taking water. As the feed, about 10 pieces of insect feed were placed into the beaker. A 1-ml syringe was used for smell and reward associative conditioning upon learning/training. The syringe contained water as the reward while a piece of paper (3 mm×3 mm) perfumed with peppermint essence was pierced into the needle to about 1 cm from the tip thereof. In this learning/training, the filter paper on the needle was brought near the antennae of the cricket to allow it to smell for 3 seconds and then a drop of water was put out from the tip of the needle and applied to the mouth of the cricket. When the associative conditioning was conducted for four times, the conditionings were conducted at intervals of 5 minutes. Smell preference was examined by placing each cricket into a test arena. The arena consisted of a “standby chamber” and a “test chamber”. […] The smell source was a plastic pot containing filter paper perfumed with essence of a smell (peppermint or vanilla) and covered with a gauze lid. In the preference test, each cricket was placed into the test chamber and allowed to walk freely for 4 minutes to search for the two smell sources. Two minutes after the start of the test, a rotary board having the smell sources was rotated to reverse the positions of the vanilla and the peppermint smells. During the test, the time the cricket spent placing its mouth to the gauze of the smell source was measured as a visiting time to the smell source, and the ratio of the visiting times of the two types of smells (PI value: preference index) was calculated according to the following formula to assess the relative preference to the mint smell. PI value=Tp/(Tp+Tv)×100 • Tp: Searching time for smell associated with the reward (peppermint) • Tv: Searching time for smell not associated with the reward (vanilla) If the preferences for the two smells are equivalent, PI will be 50. Since crickets inherently prefer vanilla smell over peppermint smell, an average PI value prior to the learning/training is usually 25-35, The preference test was conducted before and after the learning/training to examine whether preference for the smell changes due to the learning/training. […] Melatonin, 6-HM, kynurenine, kynuramine and 8br-cGMP were purchased from SIGMA Aldrich, AFMK was purchased from Cayman Chemical, AMK was purchased from Toronto Research Chemicals and CHX was purchased from Wako Pure Chemical Industries. The drugs other than 8br-cGMP and CHX were first dissolved in ethanol and then diluted with physiological saline for crickets to the respective concentrations. In the administration experiment, 3 μl was administered using a 10-μl syringe to the brain via an aperture opened through a simple eye of the head. PI values were tested before the training and a day after the training in the same group by a Wilcoxon's-test.

## COc1ccc(N)c(C(=O)CCNC(C)=O)c1 [Compound 1, N-[3-(2-amino-5-methoxyphenyl)-3-oxopropyl]-acetamide]
Young mice [1]; 0.001 mg/kg bw i.p. 15 minutes after single-time acquisition trial
  long-term memory formation (DI value, test trial 24 hours later): a long-term memory was not formed
Young mice [1]; 0.01 mg/kg bw i.p. 15 minutes after single-time acquisition trial
  long-term memory formation (DI value, test trial 24 hours later): long-term memories were formed
Young mice [1]; 0.1 mg/kg bw i.p. 15 minutes after single-time acquisition trial
  long-term memory formation (DI value, test trial 24 hours later): long-term memories were formed
Young mice [1]; 1 mg/kg bw i.p. 15 minutes after single-time acquisition trial
  long-term memory formation (DI value, test trial 24 hours later): long-term memories were formed
Young mice [1]; 1 mg/kg bw i.p. 15 minutes after single-time acquisition trial, test trials 1, 4 and 7 days later
  duration of induced long-term memory: at least 7 days
Young mice [1]; 1 mg/kg bw i.p., administered from 60 minutes prior to 120 minutes following single-time acquisition trial
  long-term memory formation (DI value, test trial 24 hours later): a long-term memory was formed
Young mice [1]; 1 mg/kg bw i.p., single-time acquisition trial
  time of administration after the acquisition trial at which long-term memory was still induced: at least 120 minutes
Young mice [1]; converted from 0.01 mg/kg bw in mice
  administration amount sufficient to form a long-term memory in terms of human (60 kg): about 0.6 mg
Young mice [1]; i.p. 15 minutes after single-time acquisition trial
  administration concentration sufficient to form a long-term memory: 0.01 mg/kg bw
Young mice [2]
  concentration at which the effect of inducing long-term memories was found: 0.1 mg/kg bw
Young crickets; based on the results from ingesting 1 μM for 10 μl
  amount in 1 g of the food per kg of body weight: ≥ 2.32 µg
Young crickets; drinking 10 μl of aqueous solution (5 μM) 5 minutes after single-time training
  long-term memory formation a day after the training by oral administration: long-term memory was formed
[3]
  crossing of the blood-brain barrier: cross the blood-brain barrier
  time to reach and act in the brain following intraperitoneal administration: about 5 minutes
[3]; within 5 minutes, thereafter decreased with time
  AMK concentration in hippocampus and perirhinal cortex as compared to the control group: significantly increased
Aged crickets; 20 minutes after training for four times
  improvement in an age-related memory disorder: improvement in an age-related memory disorder was observed
Aged crickets; 20 minutes before training for four times
  long-term memory formation a day after the training (improvement of age-related memory disorder): a long-term memory was formed
